Patent US6413499B1, “Methods and kits for maxillary dental anesthesia by means of a nasal deliverable anesthetic” (priority 2000, dated 2002)
Where a name gives a salt, the structure may show the parent alone.

Tested on: maxillary dental arch
Experiment: nasal deliverable anesthetizing composition applied to a patient's nasal cavity
Type: in vivo
Settings: for absorption of the anesthetic with vasoconstrictor: compared to an anesthetic composition applied to nasal tissue not treated with a vasoconstrictor, HCl
Source text: As set forth above, the inventive nasal deliverable anesthetic compositions are delivered to the patient through the nasal cavity. This is done by applying the anesthetic composition to the lateral wall or membrane of the nasal cavity, where it can be absorbed into the nasal tissue, including nerves located within the nasal tissue. In the case where a delivery device having an extension tube is used, good results have been obtained by inserting approximately 15 mm of the tube into the patient's nasal cavity through the nostril. A nasal speculum may advantageously be used to assist in dilating the patient's nostril preparatory to inserting the extension tube so as to facilitate placement of the tube in a desired location within the patient's nasal cavity.
As discussed above with respect to FIG. 1, the nasal cavity includes a number of nerves that are responsible for transmitting pain and pressure impulses from the maxillary arch and palate to the brain. Most of these nerves collect at and below the maxillary nerve. Due to the location of the various nerves that collect at or below the maxillary nerve it may be possible to provide various degrees of anesthesia. Control of dosage volume, through control of the number of substance dispensing, can be utilized to determine the anatomical structures to be anesthetized. Minimal dosage volumes tend to yield anesthesia to at least a portion of the maxillary dentition, while greater anesthetic dosages yield anesthesia to the entire maxillary arch.
The tetracaine portion included an associated chlorobutanol preservative. The aqueous solution included sodium chloride in water.

## Cc1cc(C(C)(C)C)c(O)c(C)c1CC1=NCCN1 [Oxymetazoline HCl]
Compared to a lidocaine composition applied to nasal tissue not treated with a vasoconstrictor
  anesthetic effect of the anesthetic with vasoconstrictor: enhanced the anesthetic effect of the lidocaine
  absorption of the anesthetic with vasoconstrictor: enhanced the absorption of the tetracaine
Listed as oxymetazoline HCl
  absorption of the anesthetic with vasoconstrictor: enhanced the absorption of the benzocaine
